# Columns and labels:
# pancreatic tissue = experiment: Histopathological evaluation of pancreas (H&E); assay type: in vivo; details: diabetic rats, after treatment
# Description: After treatment, the organs (liver and pancreas) of the rats were collected for histopathological evaluation. […] To collect the tissue at the end of the treatment time, animals were sacrificed under anesthetic conditions. These tissues were washed with phosphate-buffered saline (PBS) and fixed in 10% formalin (Tissue processing station-Tissue Teck VIP 5). The collected samples were properly stored under normal room temperature and were cut/sliced using a semiautomated microtome (Accu-Cut SRM system) into a few small pieces of 3-5 mm from each sample tissue and were separately embedded in paraffin blocks. These sliced tissues were mounted on the glass slides and were properly fixed on the glass slide with a hot plate. After this xylene was used to remove the paraffin from the tissues and was rehydrated by using a series of graded ethanol dilutions, 100%, 90%, and 70%. The rehydrated tissue sections were stained with hematoxylin and eosin (H&E) and were examined using light microscopy to determine the architecture and proportions of islet and acinar cells in the pancreas and hepatocytes in the liver. […] In the control group, acinar and islet cells are seen in the pancreas in normal proportions. The acinar cells are arranged in lobules and are stained darkly with prominent nuclei. The islet cells are embedded within the acinar cells and surrounded by a fine capsule (FIG. 19A). […]
# diabetic animals [1] = experiment: Non fasting blood glucose levels during 28 days; assay type: in vivo, rats; details: standard insulin group
# Procedure: Non fasting blood glucose levels were measured for all the groups during the 28 days.
# liver tissue = experiment: Histopathological evaluation of liver (H&E); assay type: in vivo; details: diabetic rats, after treatment
# Description: After treatment, the organs (liver and pancreas) of the rats were collected for histopathological evaluation. […] To collect the tissue at the end of the treatment time, animals were sacrificed under anesthetic conditions. These tissues were washed with phosphate-buffered saline (PBS) and fixed in 10% formalin (Tissue processing station-Tissue Teck VIP 5). The collected samples were properly stored under normal room temperature and were cut/sliced using a semiautomated microtome (Accu-Cut SRM system) into a few small pieces of 3-5 mm from each sample tissue and were separately embedded in paraffin blocks. These sliced tissues were mounted on the glass slides and were properly fixed on the glass slide with a hot plate. After this xylene was used to remove the paraffin from the tissues and was rehydrated by using a series of graded ethanol dilutions, 100%, 90%, and 70%. The rehydrated tissue sections were stained with hematoxylin and eosin (H&E) and were examined using light microscopy to determine the architecture and proportions of islet and acinar cells in the pancreas and hepatocytes in the liver. […] These cords of hepatocytes are separated by narrow intervening sinusoids lined by endothelial cells and Kupffer cells. No inflammatory cells are seen (FIG. 20A).
# [2] = Body weight during 28 days; parameters: species or system rats; details: rat, in vivo
# diabetic animals [3] = experiment: Long-term effect on fasting blood glucose over 28 days; assay type: in vivo, rats; details: standard insulin treated group
substance,measurement,setting,value
standard insulin: standard insulin dose used as the comparison treatment group in diabetic rats,Pancreatic histology,pancreatic tissue,the pancreatic histology is similar to that of the diabetic control
same,Non fasting blood glucose level at day 1,diabetic animals [1],487 mg/dL
same,Non fasting blood glucose level at day 28,diabetic animals [1],371 mg/dL
same,Liver histology,liver tissue,the liver histology shows mostly a normal lobular architecture with normal cords of hepatocytes with intervening patent sinusoids with focal congestion with only occasional hepatocytes showing degenerative changes and no inflammation is seen
same,Body weight at day 28 compared to the weight at day 21,[2],significant (p=<0.001) improvement
same,Improvement in body weight compared to diabetic control group,[2],significant (p=<0.0001)
same,"Fasting blood glucose level, initial",diabetic animals [3],433 mg/dL
same,"Fasting blood glucose level, reduced",diabetic animals [3]; p=<0.001,371 mg/dL

# Reference: patent US12280125B2 (Imam Abdulrahman Bin Faisal University, priority 2022, dated 2025)
